Values of other authors in patent publication US20070027107A1, “Compositions and methods for treating estrogen-dependent diseases and conditions” (priority 2005, published 2007).

Settings: free carboxylic acids (without counterion) of alginate residues

Row | Structure (SMILES) | pKa
1 | O=C[C@@H](O)[C@@H](O)[C@H](O)[C@@H](O)C(=O)O [G, L-guluronic acid] | 3.65
2 | O=C[C@@H](O)[C@@H](O)[C@H](O)[C@H](O)C(=O)O [M, D-mannuronic acid] | 3.38
